From patent US20050215551A1, “1-[2H-1-benzopyran-2-one-8-yl]- piperazine derivatives for the treatment of movement disorders” (SOLVAY PHARMACEUTICALS B.V., priority 2004, published 2005)
“Also recorded” adds a separate entry of the source. Where two headings read alike, the source gives them in different places.

Columns and labels:
DBA/2 mice [1] = assay: Anticonvulsant activity: audiogenic seizures in DBA/2 mice; format: in vivo; conditions: for effect on tonic phase of audiogenic seizures / effect on clonic phase of audiogenic seizures / effect on tonic and clonic phase of audiogenic seizures: 30 min after i.p. administration; for ED50: Mus musculus, ip, 0.5 h, 30 minutes after drug administration; for behavioural changes: all dosages tested
Excerpt: DBA/2 mice weighing 6-12 g (22-26 days old; either sex, Harlan Italy Correzzana, Milano, Italy) are housed in groups of 8-10 under a 12-h light/dark cycle (lights on at 7:00 a.m.) with food and water available ad libitum. The experimental protocol is approved by University of Catanzaro Ethical Committee. All procedures are in compliance with the Nationals Institutes of Health Guide for Care and Use of Laboratory Animals (Publication No. 85-23, revised 1985) and European Communities Council Directive of 24 Nov. 1986 (86/609 EEC).
The experiments are performed according to the method previously described by De Sarro et al. (1984), Eur. J. Pharmacol., 104, 55-60. Compounds of the invention or vehicle (controls) are given intraperitoneally (i.p.) and orally (p.o.) as freshly sonicated solutions in methylcellulose 1%. For the […]; pretreatment time at 30 and 60 min., For oral treatment, all animals are pretreated either at 30 or 60 min using the compounds of the invention at doses of 0.1, 0.3, 3, 6 and 10 mg/kg p.o. At least 10 mice per dose are used. After pretreatment time, each mouse is placed under a hemispheric perspex dome (58 cm in diameter) and 1 min is allowed for habituation and assessment of locomotor activity. Animals are challenged with a 12-16 kHz sinusoidal tone at 109 dB. Seizure response is assessed by two independent observers. The sound evoked behaviour is coded using the following scale: 0=no response, 1=wild running, 2=clonus, 3=tonic flexor and/or extensor; 4=respiratory arrest, on the basis of the concordant opinion of the observers. […] The maximum response is recorded for each animal. Rectal temperature is recorded immediately prior to auditory testing using an Elektrolaboratoriet thermometer type T.E.3. Behavioral changes are observed during the period between drug administration and auditory testing. In these experiments separate vehicle-treated and drug-treated groups are used at each pretreatment time (15 min-60 min). Percentage of mice showing wild running, clonic or tonic phase and the duration of anticonvulsant activity are compared to control group and statistically analyzed.
Statistical comparison between groups of control and drug-treated DBA/2 mice is made using Fisher's exact probability test (incidence of the seizure phases). The percentage incidence of each phase of the audiogenic seizure is determined for each drug. These values are plotted against the corresponding doses by a computer construction of the dose-effect curves for calculation of ED50 (with 95% confidence limits). The ED50 values for each compound are calculated using a computer program of the method of Litchfield and Wilcoxon (1949). At least 32 animals are used to calculate each ED50 value.
For systemic injections and oral administrations, all compounds are given intraperitoneally (0.1 ml/10 g of body weight of the mouse) as a freshly prepared solution in methylcellulose 1%. In order to avoid the light sensitivity, weighing and handling are carried out under sodium vapor lamps and the substances are protected from light during the experiments.

DBA/2 mice [2] = assay: Interaction studies in DBA/2 mice: Compound 1 + vehicle, sumatriptan or SB 258741 (audiogenic seizures); format: in vivo; conditions: pre-treatment 3 mg/kg, i.p.; for effect of pre-treatment on the anti-epileptic activity (dose-response curve) of Compound 1: 5 min before Compound 1
Description: The experiments are performed according to the method previously described by De Sarro et al. (1984), Eur. J. Pharmacol., 104, 55-60. Compounds of the invention or vehicle (controls) are given intraperitoneally (i.p.) and orally (p.o.) as freshly sonicated solutions in methylcellulose 1%. For the i.p. treatment compounds of the invention are given at doses of 0.1, 0.3, 3, 10, 15, 20 and 30 mg/kg; pretreatment time at 30 and 60 min., For oral treatment, all animals are pretreated either at 30 or 60 min using the compounds of the invention at doses of 0.1, 0.3, 3, 6 and 10 mg/kg p.o. At least 10 mice per dose are used. After pretreatment time, each mouse is placed under a hemispheric perspex dome (58 cm in diameter) and 1 min is allowed for habituation and assessment of locomotor activity. Animals are challenged with a 12-16 kHz sinusoidal tone at 109 dB. Seizure response is assessed by two independent observers. The sound evoked behaviour is coded using the following scale: 0=no response, 1=wild running, 2=clonus, 3=tonic flexor and/or extensor; 4=respiratory arrest, on the basis of the concordant opinion of the observers. […] The maximum response is recorded for each animal. Rectal temperature is recorded immediately prior to auditory testing using an Elektrolaboratoriet thermometer type T.E.3. Behavioral changes are observed during the period between drug administration and auditory testing. In these experiments separate vehicle-treated and drug-treated groups are used at each pretreatment time (15 min-60 min). Percentage of mice showing wild running, clonic or tonic phase and the duration of anticonvulsant activity are compared to control group and statistically analyzed.

5-HT1A = biological target: T1, 5-HT1A (Rattus norvegicus, UniProt P19327); assay: In vivo 5-HT1A agonism: lower lip retraction (LLR); conditions: 60 minutes after oral administration
T1 construct: from tissue; host or cells: whole animal (in vivo behavioural test)
Description: Lower lip retraction was measured according to the method described by Berendsen et al., (Pharmacol. Biochem. Behav. 33, (1989), 821-827).

[3] = i.p. administration, read-out: ED50 Clonic seizures
[4] = i.p. administration, read-out: ED50 Wild running
[5] = i.p. administration, read-out: ED50 Tonic extension

T1 sequence (P19327 whole entry): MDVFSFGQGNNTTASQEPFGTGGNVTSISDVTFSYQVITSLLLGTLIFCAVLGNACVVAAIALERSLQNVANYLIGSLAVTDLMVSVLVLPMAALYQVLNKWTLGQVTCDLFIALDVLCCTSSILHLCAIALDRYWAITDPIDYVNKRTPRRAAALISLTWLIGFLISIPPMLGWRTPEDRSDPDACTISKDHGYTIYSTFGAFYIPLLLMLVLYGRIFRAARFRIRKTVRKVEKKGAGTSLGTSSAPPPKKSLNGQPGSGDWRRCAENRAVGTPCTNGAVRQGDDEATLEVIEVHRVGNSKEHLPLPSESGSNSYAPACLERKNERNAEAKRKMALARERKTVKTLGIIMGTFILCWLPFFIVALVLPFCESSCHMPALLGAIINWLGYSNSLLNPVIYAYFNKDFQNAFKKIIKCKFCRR

Row | ED50 (5-HT1A) | Compound | effect on tonic phase of audiogenic seizures (DBA/2 mice [1]; 0.3, 1, 3, 10 mg/kg) | effect on clonic phase of audiogenic seizures (DBA/2 mice [1]; 0.3, 1, 3, 10, 15 and 20 mg/kg) | effect on tonic phase of audiogenic seizures (DBA/2 mice [1]; 15 and 20 mg/kg) | ED50 (DBA/2 mice [1]; read-out: ED50 Tonic extension, i.p. administration) | ED50 (DBA/2 mice [1]; [3]) | ED50 (DBA/2 mice [1]; [4]) | behavioural changes (DBA/2 mice [1]; i.p. administration) | effect on tonic phase of audiogenic seizures (DBA/2 mice [1]; 15 mg/kg) | effect on clonic phase of audiogenic seizures (DBA/2 mice [1]; 1, 3, 10 and 15 mg/kg) | ED50 (DBA/2 mice [1]; [5]) | effect of pre-treatment on the anti-epileptic activity (dose-response curve) of Compound 1 (DBA/2 mice [2]) | effect on tonic and clonic phase of audiogenic seizures (DBA/2 mice [1]; 0.3, 1, 3, 5 and 7,5 mg/kg) | effect on tonic and clonic phase of audiogenic seizures (DBA/2 mice [1]; 10 and 15 mg/kg) | potency in shifting the dose-response curve of Compound 1, compared (DBA/2 mice [2]; 5 min before)
1 |  | CCCN(CCC)C1CCc2cccc(O)c2C1 (centres unmarked) [Compound 8-OH-DPAT, 8-hydroxy-2-(di-n-propylamino)tetralin] | did not significantly antagonized | did not significantly antagonized | able to significantly (P<0.01 and P<0.05) antagonize | 15 mg/kg | > 20 mg/kg | > 20 mg/kg | At none of the dosages tested |  |  |  |  |  |  | 
2 |  | Cc1cccc(S(=O)(=O)N2CCC[C@@H]2CCN2CCC(C)CC2)c1 [SB258741] |  |  |  |  | > 15 mg/kg | > 15 mg/kg | At none of the dosages tested | able to significantly (P<0.01) antagonize | did not significantly antagonize | ~12 mg/kg | shift the dose-response curve of COMPOUND 1 to the right; also recorded: partly antagonized |  |  | 
3 | 0.22 mg/kg | O=C(NCCN1CCN(c2cccc3c2OC[C@H](CO)O3)CC1)c1ccc(F)cc1 [flesinoxan] |  |  |  |  | 9.37 mg/kg | > 15 mg/kg | At none of the dosages tested |  |  | 7.74 mg/kg |  | did not significantly antagonized | able to significantly (P<0.0.1) antagonize | 
4 |  | CNS(=O)(=O)Cc1ccc2[nH]cc(CCN(C)C)c2c1 [sumatriptan, reference compound] |  |  |  |  |  |  |  |  |  |  | shift the dose-response curve of COMPOUND 1 to the right; also recorded: partly antagonized |  |  | more potent than SB 258741
